In US11191758B2, “Use of selective serotonin 5-HT1A receptor agonists for treating side-effects of VMAT inhibitors” (Neurolixis, priority 2017, dated 2021):
“Also recorded” adds a separate entry of the source. Where two headings read alike, the source gives them in different places.

Columns and labels:
[1] = target: T1, serotonin 5-HT1A receptors (Rattus norvegicus, UniProt P19327); assay: [35S]GTPγS binding G-protein activation assay, rat hippocampal membranes; type: biochemical; conditions: for Emax: read-out: Emax, stimulation of [35S]GTPγS binding relative to 5-HT
T1 construct: Hippocampi were dissected and homogenized in 20 volumes of buffer A; from tissue; host or cells: rat hippocampus membranes (male Sprague-Dawley)
T1 sequence (P19327 1-422): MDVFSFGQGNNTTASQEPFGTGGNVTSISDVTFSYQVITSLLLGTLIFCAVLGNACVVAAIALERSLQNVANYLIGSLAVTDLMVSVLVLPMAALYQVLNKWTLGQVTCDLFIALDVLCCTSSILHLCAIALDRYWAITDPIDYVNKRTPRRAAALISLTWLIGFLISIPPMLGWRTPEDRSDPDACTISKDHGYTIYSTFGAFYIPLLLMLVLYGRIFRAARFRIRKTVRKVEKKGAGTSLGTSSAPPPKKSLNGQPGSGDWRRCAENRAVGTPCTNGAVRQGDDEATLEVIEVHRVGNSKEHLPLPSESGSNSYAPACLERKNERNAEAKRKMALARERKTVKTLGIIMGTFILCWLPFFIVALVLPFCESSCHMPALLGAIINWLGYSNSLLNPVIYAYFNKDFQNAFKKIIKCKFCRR
Experimental: Agonist efficacy for stimulation of G-protein activation at serotonin 5-HT1A receptors can be determined by [^35S]GTPγS binding assays as follows. Experiments employed brains of male Sprague-Dawley rats which were stored at −70° C. before use in binding assays. Experiments were carried out in triplicate and repeated at least three times. Frozen brains were thawed in ice-cold buffer A (50 mM Hepes containing 150 mM NaCl, 0.2 mM EDTA, 1 mM GTP, 10 μM pargyline; pH 7.4, 23° C.). Hippocampi were dissected and homogenized in 20 volumes of buffer A before incubation at 37° C. for 10 min to dissociate endogenous neurotransmitters from receptors. The homogenate was centrifuged at 20 000 g for 15 min, at 4° C. The pellet was re-suspended in buffer A and recentrifuged as before. The pellet was then re-suspended in buffer B (50 mM Hepes containing 150 mM NaCl, 0.2 mM EDTA, 5 mM MgCl2, 100 μM GDP, 10 μM pargyline), centrifuged as before and re-suspended in buffer B. Membranes were incubated in buffer B with test compounds and 0.1 nM [^35S]GTPγS for 60 min at 37° C. The incubation was terminated by rapid filtration through Whatman GF-B fiber filters using a Brandel harvester. Radioactivity retained on the filters was measured by liquid scintillation counting. Data were analyzed using a nonlinear curve-fitting program (Prism, Graphpad Software, San Diego, Calif., USA), and are expressed as mean value±S.E.M.
It should be noted that 5-HT can activate different 5-HT receptors. Herein, only the proportion of 5-HT's effect which is 5-HT1A receptor-dependent was considered in the calculations.

[2] = tested on: TBZ-treated rats (catalepsy); assay: Cross-legged position (CLP) catalepsy test, TBZ-induced catalepsy; type: in vivo, rat; conditions: TBZ 2 mg/kg i.p.
Experimental: Animals were obtained, housed and handled according to the same protocols described for Example 3. Similarly, drugs were prepared and administered according to the same protocols described for Example 3. All compounds were tested at the dose of 0.63 mg/kg.
Catalepsy induction in rats is a recognized model of Parkinsonism (Duty, S., 2011 Br J Pharmacol. 164, 1357-91). Here, catalepsy was measured using the cross-legged position test (CLP test) according to the method described by (Prinssen, E. P., et al., 1998 Eur J Pharmacol. 356, 189-92). Serotonin 5-HT1A receptor agonists were administered to rats (at least 6 per group) by oral administration (p.o.) 55 minutes before the CLP test, TBZ (2 mg/kg) was administered to rats by intraperitoneal (i.p.) route 30 min before testing. In the CLP test, the hind-limbs were placed over the ipsilateral forelimbs and the time during which an animal remained in this position was determined up to maximum of 30 seconds. The test was repeated three times (inter-trial time: 3 minutes) and the mean of the three trials was used for analysis. Animals were put back in their home cage after each set of tests.

[3] = cited from earlier work
[4] = tested on: patients with chorea associated with HD; conditions: cited from earlier work
[5] = tested on: TBZ-treated rats (immobility, depression behavior); assay: Forced Swim Test, 5-HT1A receptor agonists in TBZ-treated rats; type: in vivo, rat; conditions: TBZ […] i.p.
Experimental: The experiments were performed on male Wistar rats (170-200 g) obtained from an accredited animal facility at the Jagiellonian University Medical College, Poland. The animals were housed in group of four in controlled environment (ambient temperature […]; relative humidity 55%±10%; 12-h light/dark cycles (lights on at 8:00). Standard laboratory food (LSM-B) and filtered water were freely available. Animals were assigned randomly to treatment groups. All the experiments were performed by two observers unaware of the treatment applied between 9:00 and 14:00 on separate groups of animals. All animals were used only once. All the experimental procedures complied with the European Communities Council Directive of 24 Nov. 1986 (86/609/EEC) and were in accordance with the 1996 NIH Guide for the Care and Use of Laboratory Animals.
Tetrabenazine (TBZ) was dissolved in a vehicle solution of 0.9% saline and dimethylsulfoxide (DMSO) (20%). 10-μl hydrochloric acid (HCl) was then added to achieve full solubilization of the drug. TBZ (1.5 mg/kg) was administered intraperitoneally (i.p.).
All compounds were given in a volume of 2 ml/kg. […]
The experiment was carried out according to a well-characterized method (Porsolt, R. D., et al., 1978 Eur J Pharmacol 47, 379-91). On the first day of an experiment, the animals (at least n=6 per group) were gently individually placed in Plexiglas cylinders (40 cm high, 18 cm in diameter) containing water (17 cm deep) maintained at 23-25° C. for 15 min. On removal from water, the rats were placed for 30 min in a Plexiglas box under a 60 W incandescent filament bulb to dry. On the following day (24 h later), TBZ (1.5 mg/kg) was administered to rats by intraperitoneal (i.p.) route 90 min before testing. Serotonin 5-HT1A receptor agonists were then administered to rats by oral administration (p.o.) 60 minutes before the rats were re-placed in the cylinder and the total duration of their immobility was recorded during the 5-min test period. The swimming behavior entailed active swimming motions, e.g., moving horizontally around in the cylinder, and immobility was assigned when no additional activity was observed other than that necessary to keep the rat's head above the water.

[6] = target: other 5-HT, dopaminergic, adrenergic receptors; conditions: cited from earlier work
[7] = agonist 10 μM, % of stimulation by 5-HT 10 μM (5-HT1A-dependent part)
[8] = 0.63 mg/kg p.o. ((±)8-OH-DPAT s.c.)

## CCCN(CCC)C1CCc2cccc(O)c2C1 (racemic) [(±)8-OH-DPAT, (±)8-hydroxy-2-(di-n-propylamino)tetralin]
[1]; [7]
  Emax, stimulation of [35S]GTPγS binding relative to 5-HT: intermediate between that of buspirone and the other compounds; also recorded: intermediate efficacy
[2]; [8]
  effect on TBZ-induced CLP catalepsy duration: almost no CLP catalepsy; also recorded: significantly decreased durations of immobility
[3]
  oral bioavailability: poorly bioavailable by oral route

## COc1cc2c(cc1OC)[C@@H]1CC(=O)[C@@H](CC(C)C)CN1CC2 (racemic) [TBZ, (SS,RR)-3-Isobutyl-9,10-dimethoxy-1,3,4,6,7,11b-hexahydro-pyrido[2,1-a]isoquinolin-2-one]
[4]; 12-week double-blind, placebo-controlled study, placebo 0%
  patients with symptoms suggestive of Parkinsonism: 15%
[4]; 48-week open-label study
  patients with symptoms suggestive of Parkinsonism: 10%
[4]; 80-week open-label study
  patients with symptoms suggestive of Parkinsonism: 3%

## NCCc1c[nH]c2ccc(O)cc12 [5-HT, 5-hydroxytryptamine]
[1]; from WAY100635 (1 μM) co-incubation
  share of 5-HT-induced [35S]GTPγS binding mediated by 5-HT1A receptors: 85%

## Cc1ccc(CNCC2(F)CCN(C(=O)c3ccc(F)c(Cl)c3)CC2)nc1 [befiradol, (3-Chloro-4-fluoro-phenyl)-[4-fluoro-4-{[(5-methyl-pyridin-2-ylmethyl)-amino]-methyl}piperidin-1-yl]methanone]
[1]
  Emax: > 90%
[2]; [8]
  effect on TBZ-induced CLP catalepsy duration: almost no CLP catalepsy; also recorded: significantly decreased durations of immobility
[5]; [8]
  effect on immobility duration in TBZ-treated rats: significantly decreased durations of immobility
[5]; 0.63 mg/kg p.o. ((±)8-OH-DPAT s.c.), listed as Befiradol
  effect on immobility duration in TBZ-treated rats: significantly reduced immobility times
[6]
  pKi at other 5-HT, dopaminergic, adrenergic receptors: less than 6

## O=C1CC2(CCCC2)CC(=O)N1CCCCN1CCN(c2ncccn2)CC1 [buspirone]
[1]; [7]
  Emax: ~50%
[2]; buspirone 0.63, 2.5 or 5 mg/kg
  effect on TBZ-induced CLP catalepsy duration: does not diminish TBZ-induced catalepsy behavior; also recorded: None of the doses of buspirone showed durations of catalepsy that differed significantly
[5]; buspirone 0.63 or 2.5 mg/kg p.o.
  effect on immobility duration in TBZ-treated rats: did not reduce immobility
[5]; buspirone 0.63 or 2.5 mg/kg p.o., listed as Buspirone
  effect on immobility duration in TBZ-treated rats: did not reduce immobility duration significantly

## Cc1cnc(CNCC2(F)CCN(C(=O)c3ccc(F)c(Cl)c3)CC2)nc1 [derivative 1a, 3-chloro-4-fluorophenyl-[4-fluoro-4-[[(5-methylpyrimidin-2-ylmethyl)amino]methyl]piperidin-1-yl]methanone]
[1]
  Emax: > 90%
[2]; [8]
  effect on TBZ-induced CLP catalepsy duration: almost no CLP catalepsy; also recorded: significantly decreased durations of catalepsy
